# Measurements from publication PMC6479253 (Assay and Drug Development Technologies, 2019).
# Like-named read-outs stand apart in the source and are kept apart here.
# Key:
# [1] = molecular target: T1, human Kir2.1 channels (Homo sapiens, UniProt P63252); assay: cell-based; format: cell-based
# T1 sequence (P63252 1-427): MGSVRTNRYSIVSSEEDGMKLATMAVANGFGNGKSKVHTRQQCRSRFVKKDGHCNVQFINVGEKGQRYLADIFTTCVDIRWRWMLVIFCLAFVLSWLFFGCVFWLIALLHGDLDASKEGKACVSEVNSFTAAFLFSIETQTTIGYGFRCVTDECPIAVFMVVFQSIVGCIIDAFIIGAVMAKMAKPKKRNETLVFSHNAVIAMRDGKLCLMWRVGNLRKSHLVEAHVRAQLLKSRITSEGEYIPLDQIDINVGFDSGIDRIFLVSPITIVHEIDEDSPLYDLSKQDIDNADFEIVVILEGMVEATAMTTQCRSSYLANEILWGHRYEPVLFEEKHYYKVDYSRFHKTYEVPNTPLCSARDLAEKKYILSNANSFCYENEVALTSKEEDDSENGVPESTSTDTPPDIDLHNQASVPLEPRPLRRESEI
# [2] = test system: Kir2.1; settings: at −100 mV, manual patch-clamp; cited from earlier work
# [3] = test system: IK1 currents; settings: 3 μM chloroquine, at −100 mV; cited from earlier work
# [4] = test system: Kir2.1; settings: HEK cells, at −90 mV; ref Shen et al. 43; cited from earlier work
# [5] = test system: Kir2.1; settings: Xenopus oocytes, at −120 mV; ref Schram et al. 23; cited from earlier work
SMILES,Hill slope nH (95% CI) [1],IC50 [1] [µM],IC50 [2] [nM],decrease of IK1 currents [3] [%],IC50 [4] [µM],Hill coefficient (nH) [1],IC50 [5] [µM]
"COc1ccc(CNCc2cccc3ccccc23)cc1 [ML133, N-(4-methoxybenzyl)-1-(naphthalene-1-yl) methanamine]",2.6 (2.2–3.1),1.2,1800,–,–,–,–
"CN(C)CCCN1c2ccccc2Sc2ccc(Cl)cc21 [Chlorpromazine, 3-(2-chlorophenothiazin-10-yl)-N,N-dimethylpropan-1-amine]",1.7 (1.4–2.1),3.8,–,–,–,–,–
"COc1ccc(C2CCN(CC[C@H]3CCOc4ccccc43)CC2)cc1OC [Terikalant, 1-[2-[(4S)-3,4-dihydro-2H-chromen-4-yl]ethyl]-4-(3,4-dimethoxyphenyl)piperidine]",0.98 (0.88–1.1),8.4,–,–,–,–,–
"CCN(CC)CCCC(C)Nc1ccnc2cc(Cl)ccc12 (stereo not drawn) [Chloroquine, 4-N-(7-chloroquinolin-4-yl)-1-N,1-N-diethylpentane-1,4-diamine]",0.80 (0.76–0.83),1.9,–,67,–,–,–
[Ba+2].[Cl-].[Cl-] [Ba^2+],–,–,–,–,7.9,1.03,16
"COc1ccc(CCCOC(Cn2ccnc2)c2ccc(OC)cc2)cc1 (stereo not drawn) [SKF-96365, 1-[2-(4-methoxyphenyl)-2-[3-(4-methoxyphenyl)propoxy]ethyl]imidazole]",1.3 (1.1–1.5),4.7,–,–,–,–,–
